# Laboratory results: patent publication US9549941B2, “Compositions and methods for treating hepatitis C virus” (priority 2011, dated 2017)
# What was measured:
# [1] = Moisture sorption of GS-7977 Form 6; format: physicochemical
# Description: (§1) In one aspect, the disclosed composition comprises polymorphic Form 6 of GS-7977.
# [2] = Chemical stability of GS-7977 Form 6 on open storage; format: physicochemical; conditions: opened conditions at 40° C./75% RH for 30 days
# Description: as §1
# [3] = test system: 1a-H77 sub-genomic replicon, NS5B S282T; assay: microbe, parasite or virus in culture; format: cell-based, hepatitis C virus; conditions: Hepatitis C virus, read-out: EC50 S282T
# Protocol: (§2) (Lam et al., J. Virology (2011) 85(23): 12334-12342; Lam et al., Antimicrob. Agents Chemother. (2012) 56(6): 3359-3368.) S282T mutations in NS5B were created by site-directed mutagenesis in 1a-H77, 1b con-1, and 2a JFH1 sub-genomic replicons. 1b con-1-based chimeric replicons containing 2b, 3a, 4a, 5a, or 6a NS5B were also engineered to harbor the S282T mutation. […] Relative percentages of mutant and WT were assessed by deep sequencing.
# [4] = test system: mixture of 50% S282T and 50% WT in GT2a replicons; assay: Long-term passaging study with deep sequencing; format: cell-based, hepatitis C virus; conditions: after fifteen days
# Description: as §2, with “In vitro studies have shown that S282T is the primary mutation selected by GS-7977 in HCV genotype 1a, 1b and 2a replicon cells. (Lam” for “(Lam”
# (See also Han et al., 63rd Annual Meeting of the American Association for the Study of Liver Diseases, Poster 1078, Nov. 11, 2012.)
# Hepatitis C virus = conditions: ribavirin alone, patients with CHC; cited from earlier work
# [5] = test system: 1a-H77 sub-genomic replicon, wild-type NS5B; assay: Transient replicon assay; format: cell-based; conditions: Hepatitis C virus, read-out: EC50 WT
# Protocol: as §2
# [6] = test system: 1b con-1-based chimeric replicon containing 5a NS5B, wild-type; assay: Transient replicon assay; format: cell-based; conditions: Hepatitis C virus, read-out: EC50 WT
# Protocol: as §2
# [7] = test system: 1b con-1-based chimeric replicon containing 6a NS5B, wild-type; assay: Transient replicon assay; format: cell-based; conditions: Hepatitis C virus, read-out: EC50 WT
# Protocol: as §2
SMILES,hygroscopicity [1],moisture sorption ([1]; room temperature and 90% RH),chemical stability [2],EC50 [3] [nM],population WT [4] [%],effect on HCV RNA levels (Hepatitis C virus),EC50 [5] [nM],EC50 [6] [nM],EC50 [7] [nM]
CC(C)OC(=O)[C@H](C)N[P@](=O)(OC[C@H]1O[C@@H](n2ccc(=O)[nH]c2=O)[C@](C)(F)[C@@H]1O)Oc1ccccc1 [Form 6],not hygroscopic,less than 0.2%,chemically stable,,,,,,
"NC(=O)c1ncn([C@@H]2O[C@H](CO)[C@@H](O)[C@H]2O)n1 [Ribavirin, 1-β-D-ribofuranosyl-1H-1,2,4-triazole-3-carboxamide, reference compound]",,,,5,96,did not reduce HCV RNA levels during or after therapy,21,1.9,5.3
